“And” between values parts separate entries of the source, which are not always exact repeats. Equal values may be shown once. “Also recorded” adds a separate entry of the source.
Tests used:
[1] = test system: Bacillus subtilis subsp. spizizenii; assay: Toxicity screen, serial dilution-spot test; assay type: cell-based; conditions: gram positive; 24 h exposure in DI water, 28 °C; 0.0001 = no colonies at 0.001 mM;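 note: last dilution that did not fully inhibit growth with colonies still present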
Description: (§1) An estimation of the toxicity of 4-(N-alkylpyridinium)-1,4-DHP derivatives 3, 6, 7, and 9–11 was performed using six prokaryotic (bacteria) and one eukaryotic (yeast) microorganism species according to the procedure elaborated by Suppi et al.. The microorganisms used in the study and their origin were: Bacillus subtilis subsp. spizizenii (ATCC® 6633™*, Microbiologics®, St Cloud, MN, USA), Escherichia coli (ATCC® 8739, Microbiologics®), Klebsiella pneumoniae (Latvian Microorganisms strain collection, LMKK, strain number 535, Riga, Latvia), Micrococcus luteus (LMKK, No. 25), Pseudomonas aeruginosa (NCTC 12924, Biosciences Ltd., Dublin, Ireland), Proteus mirabilis (LMKK, No 590), and Saccharomyces cerevisiae, CEN.PK2 strain [32].
(§2) Bacteria and yeast cultures were cultivated until their exponential growth phase (optical density max 1); then, 100 µL of cell suspension was taken, washed in deionised (DI) water, and added to serially diluted samples of corresponding 4-(N-alkylpyridinium)-1,4-DHPs in DI water. All 1,4-DHPs were tested in five serially diluted concentrations (10 mM, 1 mM, 0.1 mM, 0.01 mM, and 0.001 mM). Test organisms were exposed to 1,4-DHP derivatives in DI water on 96-well microplates (Corning, Corning, NY, USA) at 28 °C for 24 h without shaking in the dark. Then, a 5 µL sample was taken from each well and spotted on yeast extract, bactopeptone, dextrose broth (YPD) (yeast extract 1%, bactopeptone 2%, glucose 2% and agar 2%) plates to test the growth of yeasts and lysogeny broth (LB) (yeast extract 0.5%, bactopeptone 1%, NaCl 0.5% and agar 2%) to test the growth for bacteria. Plates were left in 30 °C for 24 h, and assessed for microbial growth.
(§3) If there were no colonies after incubation with 1,4-DHPs in the last concentration of (0.001 mM), then their boundary concentration was set to 0.0001 mM or 0.1 µM.

Escherichia coli = assay: Toxicity screen, serial dilution-spot test; assay type: cell-based; conditions: gram negative; 24 h exposure in DI water, 28 °C; 0.0001 = no colonies at 0.001 mM;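 note: last dilution that did not fully inhibit growth with colonies still present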
Description: as §1, §2, §3

Klebsiella pneumoniae = assay: Toxicity screen, serial dilution-spot test; assay type: cell-based; conditions: gram negative; 24 h exposure in DI water, 28 °C; 0.0001 = no colonies at 0.001 mM;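 note: last dilution that did not fully inhibit growth with colonies still present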
Description: as §1, §2, §3

Micrococcus luteus = assay: Toxicity screen, serial dilution-spot test; assay type: cell-based; conditions: gram positive; 24 h exposure in DI water, 28 °C; 0.0001 = no colonies at 0.001 mM;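 note: last dilution that did not fully inhibit growth with colonies still present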
Description: as §1, §2, §3

Proteus mirabilis = assay: Toxicity screen, serial dilution-spot test; assay type: cell-based; conditions: gram negative; 24 h exposure in DI water, 28 °C; 0.0001 = no colonies at 0.001 mM;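 note: last dilution that did not fully inhibit growth with colonies still present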
Description: as §1, §2, §3

Pseudomonas aeruginosa = assay: Toxicity screen, serial dilution-spot test; assay type: cell-based; conditions: gram negative; 24 h exposure in DI water, 28 °C; 0.0001 = no colonies at 0.001 mM;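 note: last dilution that did not fully inhibit growth with colonies still present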
Description: as §1, §2, §3

[2] = test system: Saccharomyces cerevisiae, CEN.PK2 strain; assay: Toxicity screen, serial dilution-spot test; assay type: cell-based; conditions: yeast; 24 h exposure in DI water, 28 °C; 0.0001 = no colonies at 0.001 mM;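 note: last dilution that did not fully inhibit growth with colonies still present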
Description: as §1, §2, §3

[3] = test system: six prokaryotic (bacteria) and one eukaryotic (yeast) microorganism species; assay: Toxicity screen, whole panel of microorganisms; assay type: cell-based; conditions: concentrations tested 10 to 0.001 mM
Description: as §1, §2, §3

[4] = Self-assembling properties by dynamic light scattering (DLS); assay type: physicochemical; conditions: for PDI ± SD, 1 Set: freshly prepared samples; for Zeta-Pot ± SD: freshly prepared samples in water, 0.5 mg/mL (1–7), 0.25 mg/mL (8–10), 0.1 mg/mL (11); for PDI ± SD, 2 Set: two weeks after the first set, samples stored at r.t.; for Stability of nanoparticles: two weeks of storage at r.t., DLS
Description: Samples of compounds for dynamic light scattering (DLS) studies were prepared by thin-film hydration method in an aqueous solution at a concentration of 0.5 mg/mL for compounds 1–7, 0.25 mg/mL for compounds 8–10, and 0.1 mg/mL for compound 11. A corresponding amount of compounds was weighted in a round-bottom flask and dissolved in chloroform; then, the organic solvent was removed in vacuo, and the residue was dried in high vacuo for 1 h. An appropriate amount of deionised water was added to each flask for the preparation of stock solutions with the above-mentioned concentrations. Samples were prepared by sonication using a bath-type sonicator (Cole Parmer Ultrasonic Cleaner 8891CPX (Vernon Hills, IL, USA)). Samples were sonicated for 60 min at 50 °C.
The DLS measurements of the nanoparticles in an aqueous solution were carried out on a Zetasizer Nano ZSP (Malvern Panalytical Ltd., Malvern, UK) instrument with Malvern Instruments Ltd. Software 7.12, using the following specifications—medium: water; refractive index: 1.33; viscosity: 0.8872 cP; temperature: 25 °C; dielectric constant: 78.5; nanoparticles: liposomes; refractive index of materials: 1.60; detection angle: 173°; wavelength: 633 nm. Data were analysed using the multimodal number distribution software that was included with the instrument. The measurements were performed in triplicate in order to check their reproducibility.

[5] = Determination of critical aggregation concentration (CAC) by DLS; assay type: physicochemical; conditions: aqueous media
Description: The critical aggregation concentrations (CAC) of 4-(N-alkylpyridinium)-1,4-DHP derivatives were determined in aqueous media using a Zetasizer Nano S90 (Malvern Panalytical Ltd., Malvern, UK) instrument with Malvern Instruments Ltd. Software according to procedure described by Topel et al. and modified by our group. Briefly, as stock solutions of tested compounds were used, samples were prepared for self-assembling experiments. All of the subsequent samples were prepared starting from the concentrated stock solution, which was subjected to a serial two-fold dilution each time with water. The intensity values of scattered light (kcps) as a function of concentration of amphiphiles were analysed. The scattering intensities detected for amphiphile concentrations below CAC have an approximately constant value corresponding to water. The intensity starts to show a linear increase with concentration at the CAC, since the amount of nanoparticles increases in the solution. The intersection of the best-fit lines drawn through the data points is the preliminary CAC value of the compounds.

SMILES | Boundary concentration, B. subtilis [1] [mM] | Boundary concentration, E. coli (Escherichia coli) [mM] | Boundary concentration, K. pneumoniae (Klebsiella pneumoniae) [mM] | Boundary concentration, M. luteus (Micrococcus luteus) [mM] | Boundary concentration, P. mirabilis (Proteus mirabilis) [mM] | Boundary concentration, P. aeruginosa (Pseudomonas aeruginosa) [mM] | Boundary concentration, S. cerevisiae [2] [mM] | Effect on survival of microorganisms [3] | PDI ± SD, 1 Set [4] | Zeta-Pot ± SD [4] | PDI ± SD, 2 Set [4] | Stability of nanoparticles [4] | CAC [5] [µM]
CCCCCCCCCCCC[n+]1cccc(C2C(C(=O)OCC)=C(C)NC(C)=C2C(=O)OCC)c1 [Compound 3] | 0.01 | 0.01 | 0.1 | 0.001 | 0.001 | 0.01 | 0.001 | toxic at various degrees | 0.14 and 0.14 ± 0.01 | +57.73 ± 2.30 mV | 0.17 and 0.17 ± 0.02 | stable after two weeks of storage; also recorded: confirmed the stability of nanoparticles | 9.3
C#CCN1C(C)=C(C(=O)OCC)C(c2ccc[n+](CCCCCCCCCCCC)c2)C(C(=O)OCC)=C1C [Compound 6] | 0.0001 | 0.001 | 0.1 | 0.0001 | 1 | 0.01 | 0.001 | toxic at various degrees | 0.15 and 0.15 ± 0.02 |  | 0.20 and 0.20 ± 0.01 | stable after two weeks of storage; also recorded: confirmed the stability of nanoparticles | 43.3
C#CCOC(=O)C1=C(C)NC(C)=C(C(=O)OCC#C)C1c1ccc[n+](CC)c1 [Compound 7] | 0.1 | 1 | 10 | 0.001 | 0.1 | 0.01 | 1 |  | 0.90 and 0.90 ± 0.03 | −0.78 ± 0.26 mV | 0.73 ± 0.09 | weak stability | 
C#CCOC(=O)C1=C(C)NC(C)=C(C(=O)OCC#C)C1c1ccc[n+](CCCCCCCCCCCC)c1 [Compound 9] | 0.01 | 0.0001 | 0.1 | 0.0001 | 0.01 | 0.01 | 0.0001 | toxic at various degrees | 0.36 and 0.36 ± 0.08 | +32.00 ± 4.81 mV | 0.57 and 0.57 ± 0.05 | lost their homogeneity after two weeks of storage | 9.3

From PMC6470589, “Contribution of Molecular Structure to Self-Assembling and Biological Properties of Bifunctional Lipid-Like 4-(N-Alkylpyridinium)-1,4-Dihydropyridines” (Pharmaceutics, 2019)
